Activity calls are given as the source filed them. No rule for the calls is given here.

What is called TD50 is the dose at which the toxic effect under study appears in half of the subjects.

This data set relates to rodent lifetime carcinogenesis bioassay, tumor incidence TD50. Nature of the data set: chronic cancer bioassays in animals – CPDB, compiled studies (AID 1745844).

As for `Nc1ccc(Cl)c(N)c1`, the TD50 reads like this: (mouse, strain B6C3F1, females, in feed, site: any site (literature study), lesion: several types, types named in the paper, dosed 78 weeks, study length 95 weeks) 15400 mg/kg/day; (mouse, strain B6C3F1, females, in feed, site: liver, lesion: hepatocellular adenoma + hepatocellular carcinoma + neoplastic nodule, dosed 78 weeks, study length 95 weeks) 1230 mg/kg/day; (mouse, strain B6C3F1, females, in feed, site: liver, lesion: hepatocellular adenoma + hepatocellular carcinoma, dosed 78 weeks, study length 95 weeks) 1230 mg/kg/day; (mouse, strain B6C3F1, females, in feed, site: liver, lesion: hepatocellular carcinoma, dosed 78 weeks, study length 95 weeks) 1780 mg/kg/day; (mouse, strain B6C3F1, males, in feed, site: any site (literature study), lesion: several types, types named in the paper, dosed 78 weeks, study length 94 weeks) 7320 mg/kg/day (inactive); (mouse, strain B6C3F1, males, in feed, site: liver, lesion: hepatocellular adenoma + hepatocellular carcinoma + neoplastic nodule, dosed 78 weeks, study length 94 weeks) 7050 mg/kg/day. The TD50 is, setting by setting: (rat, strain Fischer 344, females, in feed, site: any site (literature study), lesion: several types, types named in the paper, dosed 78 weeks, study length 104 weeks) 479 mg/kg/day; (rat, strain Fischer 344, females, in feed, site: liver, lesion: hepatocellular adenoma + hepatocellular carcinoma + neoplastic nodule, dosed 78 weeks, study length 104 weeks) 2680 mg/kg/day; (rat, strain Fischer 344, females, in feed, site: uterus, lesion: endometrial stromal polyp, dosed 78 weeks, study length 104 weeks) 175 mg/kg/day (inactive); (rat, strain Fischer 344, males, in feed, site: adrenal gland, lesion: pheochromocytoma, dosed 78 weeks, study length 104 weeks) 315 mg/kg/day; (rat, strain Fischer 344, males, in feed, site: any site (literature study), lesion: several types, types named in the paper, dosed 78 weeks, study length 104 weeks) 422 mg/kg/day; (rat, strain Fischer 344, males, in feed, site: liver, lesion: hepatocellular adenoma + hepatocellular carcinoma + neoplastic nodule, dosed 78 weeks, study length 104 weeks) 1570 mg/kg/day.
In the case of `O=C(O)c1cc(Oc2ccc(C(F)(F)F)cc2Cl)ccc1[N+](=O)[O-]`, the TD50 by setting is: (mouse, strain B6C3F1, females, in feed, site: liver, lesion: hepatocellular adenoma, dosed 78 weeks, study length 78 weeks) 434 mg/kg/day; (mouse, strain B6C3F1, females, in feed, site: liver, lesion: hepatocellular carcinoma, dosed 78 weeks, study length 78 weeks) 1380 mg/kg/day; (mouse, strain B6C3F1, females, in feed, site: liver, lesion: several types, types named in the paper, dosed 78 weeks, study length 78 weeks) 328 mg/kg/day; (mouse, strain B6C3F1, females, in feed, site: stomach, lesion: papilloma, dosed 78 weeks, study length 78 weeks) 1050 mg/kg/day; (mouse, strain B6C3F1, males, in feed, site: liver, lesion: hepatocellular adenoma, dosed 78 weeks, study length 78 weeks) 331 mg/kg/day; (mouse, strain B6C3F1, males, in feed, site: liver, lesion: hepatocellular carcinoma, dosed 78 weeks, study length 78 weeks) 395 mg/kg/day. Moreover, the TD50 reads like this: (mouse, strain B6C3F1, males, in feed, site: liver, lesion: several types, types named in the paper, dosed 78 weeks, study length 78 weeks) 149 mg/kg/day; (mouse, strain B6C3F1, males, in feed, site: stomach, lesion: papilloma, dosed 78 weeks, study length 78 weeks) 2050 mg/kg/day; (mouse, strain Charles River CD1, females, in feed, site: liver, lesion: hepatocellular adenoma, dosed 104 weeks, study length 104 weeks) 160 mg/kg/day; (mouse, strain Charles River CD1, females, in feed, site: liver, lesion: hepatocellular carcinoma, dosed 104 weeks, study length 104 weeks) 715 mg/kg/day; (mouse, strain Charles River CD1, females, in feed, site: liver, lesion: several types, types named in the paper, dosed 104 weeks, study length 104 weeks) 126 mg/kg/day; (mouse, strain Charles River CD1, males, in feed, site: liver, lesion: hepatocellular adenoma, dosed 104 weeks, study length 104 weeks) 187 mg/kg/day. Further, the TD50 (mouse, strain Charles River CD1, males, in feed, site: liver, lesion: hepatocellular carcinoma, dosed 104 weeks, study length 104 weeks) stood at 307 mg/kg/day and the TD50 (mouse, strain Charles River CD1, males, in feed, site: liver, lesion: several types, types named in the paper, dosed 104 weeks, study length 104 weeks) is 93.8 mg/kg/day.
With `[Cl][Hg]`, the carcinogen call (mouse, strain BALB/c, males, in feed, site: liver, lesion: one or several types, types not named, dosed 60 weeks, study length 104 weeks) was “negative (inactive)” and the carcinogen call (mouse, strain BALB/c, males, in feed, site: lung, lesion: one or several types, types not named, dosed 60 weeks, study length 104 weeks) is “negative (inactive)”.
Turning to `OC[C@H]1OC(OC[C@H]2O[C@H](O)[C@H](O)[C@@H](O)[C@@H]2O)[C@H](O)[C@@H](O)[C@@H]1O` (stereo not given in full), the carcinogen call (mouse, strain Charles River CD1, females, in feed, site: liver, lesion: one or several types, types not named, dosed 80 weeks, study length 80 weeks) was “negative (inactive)”. The TD50 (mouse, strain Charles River CD1, males, in feed, site: liver, lesion: hepatocellular adenoma, dosed 80 weeks, study length 80 weeks) was 46300 mg/kg/day (inactive).
Turning to `CCOCCc1c(-c2ccccc2)nc(N)n2ncnc12`, the TD50 was 307 mg/kg/day (rat, strain Charles River CD (Sprague-Dawley), females, in feed, site: liver, lesion: hepatocellular adenoma, dosed 97 weeks, study length 105 weeks); 646 mg/kg/day (rat, strain Charles River CD (Sprague-Dawley), females, in feed, site: liver, lesion: hepatocellular carcinoma, dosed 97 weeks, study length 105 weeks); 3010 mg/kg/day (rat, strain Charles River CD (Sprague-Dawley), females, in feed, site: mammary gland, lesion: adenoma, dosed 97 weeks, study length 105 weeks); 669 mg/kg/day (rat, strain Charles River CD (Sprague-Dawley), females, in feed, site: mammary gland, lesion: carcinoma, dosed 97 weeks, study length 105 weeks); 9710 mg/kg/day (rat, strain Charles River CD (Sprague-Dawley), females, in feed, site: thyroid gland, lesion: adenoma, dosed 97 weeks, study length 105 weeks); 2530 mg/kg/day (rat, strain Charles River CD (Sprague-Dawley), males, in feed, site: liver, lesion: hepatocellular adenoma, dosed 97 weeks, study length 105 weeks). The TD50 reads like this: (rat, strain Charles River CD (Sprague-Dawley), males, in feed, site: liver, lesion: hepatocellular carcinoma, dosed 97 weeks, study length 105 weeks) 4160 mg/kg/day; (rat, strain Charles River CD (Sprague-Dawley), males, in feed, site: thyroid gland, lesion: adenoma, dosed 97 weeks, study length 105 weeks) 11000 mg/kg/day; (rat, strain Charles River CD (Sprague-Dawley), males, in feed, site: thyroid gland, lesion: carcinoma, dosed 97 weeks, study length 105 weeks) 12400 mg/kg/day.
Consider `Cc1ccc2c(c1)C(N1CCN(C)CC1)=Nc1ccccc1S2`, for which the carcinogen call by setting is: (rat, strain albino, females, in feed, site: mammary gland, lesion: fibroadenoma, dosed 78 weeks, study length 78 weeks) “negative (inactive)”; (rat, strain albino, males, in feed, site: pituitary gland, lesion: adenoma, dosed 78 weeks, study length 78 weeks) “negative (inactive)”.
Take `O=NN1CCOC(O)C1` (stereo not given): where the note is “rat, strain Fischer 344, females, in drinking water, site: liver, lesion: hepatocellular carcinoma, dosed 50 weeks, study length 122 weeks”, the TD50 is 14.9 mg/kg/day (inactive).
For the compound `O=NN1CC=CCO1`, the TD50 reads like this: (rat, strain Sprague-Dawley, both sexes, in drinking water, site: any site (literature study), lesion: malignant tumor, dosed 87 weeks, study length 101 weeks) 90.6 mg/kg/day; (rat, strain Sprague-Dawley, both sexes, in drinking water, site: any site (literature study), lesion: several types, types named in the paper, dosed 87 weeks, study length 101 weeks) 110 mg/kg/day; (rat, strain Sprague-Dawley, both sexes, in drinking water, site: liver, lesion: hepatoma, dosed 87 weeks, study length 101 weeks) 417 mg/kg/day (inactive).

For the origin of these results see PubChem BioAssay AID1745844 (Carcinogenic Potency Database (CPDB), 2022).
